Test results: patent publication US20070043024A1, “Azacyclic compounds as inhibitors of sensory neurone specific channels” (priority 2003, published 2007)

Target: T1, human Nav1.8 (hNav1.8) ion channel (Homo sapiens, UniProt Q9Y5Y9)
T1 construct: expressed in transfected cells
Assay: Inhibition of human Nav1.8 stably expressed in SH-SY-5Y cells (membrane potential dye fluorescence assay)
Format: cell-based
Conditions: IC50, Table 1; SH-SY-5Y hNav1.8 cells, inhibition of membrane depolarisation, FLIPR membrane potential dye, 250 nM TTX, test concentration range 100 μM-0.05 μM

T1 sequence (Q9Y5Y9 whole entry): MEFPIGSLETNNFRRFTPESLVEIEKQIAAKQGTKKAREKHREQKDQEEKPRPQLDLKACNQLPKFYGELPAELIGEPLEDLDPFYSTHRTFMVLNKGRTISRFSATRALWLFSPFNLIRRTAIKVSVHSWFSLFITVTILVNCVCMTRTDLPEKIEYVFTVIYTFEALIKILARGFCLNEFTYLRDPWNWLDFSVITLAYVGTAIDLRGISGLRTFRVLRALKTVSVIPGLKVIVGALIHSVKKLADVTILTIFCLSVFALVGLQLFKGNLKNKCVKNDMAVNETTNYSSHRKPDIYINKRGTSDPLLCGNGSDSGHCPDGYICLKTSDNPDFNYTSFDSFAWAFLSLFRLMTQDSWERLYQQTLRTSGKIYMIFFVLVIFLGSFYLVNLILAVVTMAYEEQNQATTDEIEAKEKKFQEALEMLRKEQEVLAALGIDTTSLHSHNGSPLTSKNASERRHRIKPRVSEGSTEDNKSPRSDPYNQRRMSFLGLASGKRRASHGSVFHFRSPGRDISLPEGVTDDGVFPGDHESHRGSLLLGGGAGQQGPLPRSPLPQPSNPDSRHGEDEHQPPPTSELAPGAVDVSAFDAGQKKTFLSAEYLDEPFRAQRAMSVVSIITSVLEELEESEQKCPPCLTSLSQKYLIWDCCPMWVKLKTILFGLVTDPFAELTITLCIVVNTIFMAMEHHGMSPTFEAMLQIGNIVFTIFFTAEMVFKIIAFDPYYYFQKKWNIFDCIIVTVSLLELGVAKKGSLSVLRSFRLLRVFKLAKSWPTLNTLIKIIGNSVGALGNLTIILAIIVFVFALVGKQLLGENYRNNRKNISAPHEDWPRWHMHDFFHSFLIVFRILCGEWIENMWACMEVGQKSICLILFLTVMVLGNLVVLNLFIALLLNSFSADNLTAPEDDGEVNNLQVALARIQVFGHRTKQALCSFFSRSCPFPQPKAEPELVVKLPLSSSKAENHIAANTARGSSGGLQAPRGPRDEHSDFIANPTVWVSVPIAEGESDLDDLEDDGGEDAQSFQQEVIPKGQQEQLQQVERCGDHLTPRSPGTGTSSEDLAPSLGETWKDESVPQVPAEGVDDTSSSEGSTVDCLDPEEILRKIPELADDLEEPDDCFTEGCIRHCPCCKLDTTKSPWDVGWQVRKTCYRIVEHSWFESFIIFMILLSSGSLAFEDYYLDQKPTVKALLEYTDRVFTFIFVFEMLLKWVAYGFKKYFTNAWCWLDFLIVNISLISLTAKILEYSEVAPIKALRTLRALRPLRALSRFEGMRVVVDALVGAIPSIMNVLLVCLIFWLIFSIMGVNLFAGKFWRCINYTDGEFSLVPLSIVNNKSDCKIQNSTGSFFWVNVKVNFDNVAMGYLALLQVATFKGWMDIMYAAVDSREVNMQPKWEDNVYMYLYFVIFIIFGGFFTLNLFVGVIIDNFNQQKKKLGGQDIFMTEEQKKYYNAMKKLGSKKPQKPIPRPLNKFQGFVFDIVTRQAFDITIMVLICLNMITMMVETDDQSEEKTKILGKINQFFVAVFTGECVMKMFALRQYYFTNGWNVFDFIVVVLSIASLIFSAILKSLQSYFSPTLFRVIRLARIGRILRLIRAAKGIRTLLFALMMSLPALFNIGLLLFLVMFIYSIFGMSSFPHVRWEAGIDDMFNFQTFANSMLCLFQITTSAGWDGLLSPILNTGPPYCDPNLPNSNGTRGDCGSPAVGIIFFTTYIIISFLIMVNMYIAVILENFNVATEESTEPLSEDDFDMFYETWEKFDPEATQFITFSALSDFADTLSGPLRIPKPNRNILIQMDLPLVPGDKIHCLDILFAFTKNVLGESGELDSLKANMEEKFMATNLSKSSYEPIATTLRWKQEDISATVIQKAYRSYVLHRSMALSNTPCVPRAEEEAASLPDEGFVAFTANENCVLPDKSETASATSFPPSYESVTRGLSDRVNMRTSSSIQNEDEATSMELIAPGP

`O=C(CN1CCc2cccc(O)c2C1)N(Cc1ccccc1)c1ccccc1` [Example 25, N-Benzyl-2-(8-hydroxy-3,4-dihydro-1H-isoquinolin-2-yl)-N-phenyl-acetamide] and `O=C(CN1CCc2cccc(O)c2C1)NCCC(c1ccccc1)c1ccccc1` [Example 27, N-(3,3-Diphenyl-propyl)-2-(8-hydroxy-3,4-dihydro-1H-isoquinolin-2-yl)-acetamide] are within 1.5-fold of each other in IC50: 1.07 µM for the first, 1.02 µM for the second.

With `Cc1cnc(C(C)NC(=O)CN2CCc3cccc(O)c3C2)s1` (stereo not shown) [Example 29, 2-(8-Hydroxy-3,4-dihydro-1H-isoquinolin-2-yl)-N-[1-(5-methyl-thiazol-2-yl)-ethyl]-acetamide] the IC50 was 15 µM.

Same assay, conditions: Table 1; SH-SY-5Y hNav1.8 cells, inhibition of membrane depolarisation, FLIPR membrane potential dye, 250 nM TTX, test concentration range 100 μM-0.05 μM; read-out: IC50

`Oc1cccc2c1CN(CCN(Cc1ccccc1)Cc1ccccc1)CC2` [Example 8] and `c1ccc(CN(CCN2CCc3ccccc3C2)Cc2ccccc2)cc1` [Example 47, Dibenzyl-[2-(3,4-dihydro-1H-isoquinolin-2-yl)-ethyl]-amine] are within 1.5-fold of each other in IC50: 0.41 µM for the first, 0.47 µM for the second.

`Fc1ccc(C(CCCN2CCc3ccccc3C2)c2ccc(F)cc2)cc1` [Example 9, 2-[4,4-Bis-(4-fluoro-phenyl)-butyl]-1,2,3,4-tetrahydro-isoquinoline] and `COc1cccc2c1CN(CCCC(c1ccc(F)cc1)c1ccc(F)cc1)CC2` [Example 10, 2-[4,4-Bis-(4-fluoro-phenyl)-butyl]-8-methoxy-1,2,3,4-tetrahydro-isoquinoline] are within 1.5-fold of each other in IC50: 0.43 µM for the first, 0.48 µM for the second.

Going from `Oc1cccc2c1CN(CC(c1ccccc1)c1ccccc1)CC2` [Example 11, 2-(2,2-Diphenyl-ethyl)-1,2,3,4-tetrahydro-isoquinoline-8-ol] to `COc1cccc2c1CN(CC(c1ccccc1)c1ccccc1)CC2` [Example 13, 2-(2,2-Diphenyl-ethyl)-8-methoxy-1,2,3,4-tetrahydro-isoquinoline], the IC50 rises from 0.6 µM to 1.39 µM (2.3-fold).

`c1ccc(C(CN2CCc3ccccc3C2)c2ccccc2)cc1` [Example 12, 2-(2,2-Diphenyl-ethyl)1,2,3,4-tetrahydro-isoquinoline] and `O=C(CN1CCc2ccccc2C1)NCC(c1ccccc1)c1ccccc1` [Example 60, 2-(3,4-Dihydro-1H-isoquinolin-2-yl)-N-(2,2-diphenyl-ethyl)-acetamide] are within 1.5-fold of each other in IC50: 0.99 µM for the first, 0.95 µM for the second.

First: O=C(CN1CCc2ccccc2C1)NC(c1ccccc1)c1ccccc1 [Example 14, N-Benzyhydryl-2-(3,4-dihydro-1H-isoquinolin-2-yl)-acetamide]
Second: O=C(CN1Cc2ccccc2C1)NC(c1ccccc1)c1ccccc1 [Example 41, N-Benzhydryl-2-(1,3-dihydro-isoindol-2-yl)-acetamide]
The IC50 of the first is 4.4-fold lower: 1.59 µM for the first, 7.02 µM for the second. The first is the more potent here.

`O=C(CN1CCc2ccccc2C1)N(Cc1ccccc1)Cc1ccccc1` [Example 16, N,N-Dibenzyl-2-(3,4-dihydro-1H-isoquinolin-2yl)-acetamide] and `O=C(CN1CCc2ccccc2C1)N(Cc1ccccc1)c1ccccc1` [Example 17, N-Benzyl-2-(3,4-dihydro-1H-isoquinolin-2-yl)-N-phenyl-acetamide] are within 1.5-fold of each other in IC50: 0.88 µM for the first, 1.25 µM for the second.

`O=C(CN1CCc2ccccc2C1)NCCC(c1ccccc1)c1ccccc1` [Example 18, 2-(3,4-Dihydro-1H-isoquinolin-2yl)-N-(3,3-diphenyl-propyl)-acetamide] and `O=C(CN1Cc2ccccc2C1)NCCC(c1ccccc1)c1ccccc1` [Example 40, 2-(1,3-Dihydro-isoindol-2-yl)-N-(3,3-diphenyl-propyl)-acetamide] are within 1.5-fold of each other in IC50: 0.68 µM for the first, 0.97 µM for the second.

Going from `COc1cccc2c1CN(CC(=O)NC(c1ccccc1)c1ccccc1)CC2` [Example 19, N-Benzhydryl-2-(8-methoxy-3,4-dihydro-1H-isoquinolin-2-yl)-acetamide] to `O=C(CN1CCc2cccc(O)c2C1)NC(c1ccccc1)c1ccccc1` [Example 24, N-Benzhydryl-2-(8-hydroxy-3,4-dihydro-1H-isoquinolin-2-yl)-acetamide], the IC50 rises from 0.73 µM to 1.51 µM (2.1-fold). The first is the more potent here.

Going from `COc1cccc2c1CN(CC(=O)NCCC(c1ccccc1)c1ccccc1)CC2` [Example 22, N-(3,3-Diphenyl-propyl)-2-(8-methoxy-3,4-dihydro-1H-isoquinolin-2-yl)-acetamide] to `COc1cccc2c1CN(C(=O)CNCC(c1ccccc1)c1ccccc1)CC2` [Example 39, 2-(2,2-Diphenyl-ethylamino)-1-(8-methoxy-3,4-dihydro-1H-isoquinolin-2-yl)-ethanone], the IC50 falls from 0.81 µM to 0.45 µM (1.8-fold).

First: O=C(CN1CCc2cccc(O)c2C1)N(Cc1ccccc1)Cc1ccccc1 [Example 23, N,N-Dibenzyl-2-(8-hydroxy-3,3-dihydro-1H-isoquinolin-2-yl)-acetamide]
Second: O=C(CN(Cc1ccccc1)Cc1ccccc1)N1CCc2ccccc2C1 [Example 35, 2-Dibenzylamino-1-(3,4-dihydro-1H-isoquinolin-2-yl)-ethanone]
The IC50 of the first is 19-fold lower: 0.26 µM for the first, 4.86 µM for the second. The first is the more potent here.

Compared with `O=C(CN1CCc2cccc(O)c2C1)NC1c2ccccc2-c2ccccc21` [Example 26, N-(9H-fluoren-9-yl)-2-(8-hydroxy-3,4-dihydro-1H-isoquinolin-2-yl)acetamide], `Oc1cccc2c1CN(Cc1n[nH]nc1-c1ccccc1)CC2` [Example 45, 2-(5-Phenyl-2H-[1,2,3]triazol-4-ylmethyl)-1,2,3,4-tetrahydro-isoquinolin-8-ol] is 11-fold higher in IC50: 0.67 µM for the first, 7.21 µM for the second.

Compared with `O=C(CC(c1ccc(F)cc1)c1ccc(F)cc1)N1CCc2ccccc2C1` [Example 30], `O=C(CNCC(c1ccccc1)c1ccccc1)N1CCc2ccccc2C1` [Example 32, 1-(3,4-Dihydro-1-isoquinolin-2-yl)-2-(2,2-diphenyl-ethylamino)-ethanone] is 6.9-fold lower in IC50: 1.59 µM for the first, 0.23 µM for the second.

First: O=C(CNC(c1ccccc1)c1ccccc1)N1CCc2ccccc2C1 [Example 31, 2-(Benzhydryl-amino)-1-(3,4-dihydro-1H-isoquinolin-2-yl)-ethanone]
Second: O=C(CNCCC(c1ccccc1)c1ccccc1)N1CCc2ccccc2C1 [Example 34, 1-(3,4-Dihydro-1H-isoquinolin-2-yl)-2-(3,3-diphenyl-propylamino)-ethanone]
The IC50 of the first is 9.7-fold higher: 1.85 µM for the first, 0.19 µM for the second. The second is the more potent here.

First: O=C(CN(CCC(c1ccccc1)c1ccccc1)CC(=O)N1CCc2ccccc2C1)N1CCc2ccccc2C1 [Example 33, 1-(3,4-Dihydro-1H-isoquinolin-2-yl)-2-[[2-(3,4-dihydro-1H-isoquinolin-2-yl)-2-oxo-ethyl]-(3,3-diphenyl-propyl)-amino]-ethanone]
Second: COc1cccc2c1CN(C(=O)CN(CC(=O)N1CCc3cccc(OC)c3C1)CC(c1ccccc1)c1ccccc1)CC2 [Example 36]
The IC50 of the first is 3.3-fold lower: 0.86 µM for the first, 2.8 µM for the second. The first is the more potent here.

Going from `COc1cccc2c1CN(C(=O)CNC(c1ccccc1)c1ccccc1)CC2` [Example 38, 2-(Benzhydryl-amino)-1-(8-methoxy-3,4-dihydro-1H-isoquinoline-2-yl)-ethanone] to `COc1cccc2c1CN(C(=S)NCC(c1ccccc1)c1ccccc1)CC2` [Example 52, 8-Methoxy-3,4-dihydro-1H-isoquinolin-2-carbothioic acid (2,2-diphenyl-ethyl)-amide], the IC50 rises from 1.39 µM to 4.68 µM (3.4-fold).

First: O=C(CON=C(c1ccccc1)c1ccccc1)N1CCc2ccccc2C1 [Example 42, 2-Benzhydrylideneaminooxy-1-(3,4-dihydro-1H-isoquinoline-2-yl)-ethanone]
Second: COc1cccc2c1CN(C(=O)CON=C(c1ccccc1)c1ccccc1)CC2 [Example 43, 2-Benzhydrylideneaminooxy-1-(8-methoxy-3,4-dihydro-1H-isoquinoline-2-yl)-ethanone]
The IC50 of the first is 1.6-fold lower: 1.05 µM for the first, 1.67 µM for the second.

First: c1ccc(C(CCNCCN2CCc3ccccc3C2)c2ccccc2)cc1 [Example 46, [2-(3,4-Dihydro-1H-isoquinolin-2-yl)-ethyl]-(3,3-diphenyl-propyl)-amine]
Second: S=C(NC(c1ccccc1)c1ccccc1)N1CCc2ccccc2C1 [Example 50, 3,4-Dihydro-1H-isoquinoline-2-carbothioic acid benzhydryl-amide]
The IC50 of the first is 9.4-fold lower: 0.29 µM for the first, 2.74 µM for the second. The first is the more potent here.

`CC(CN1CCc2cccc(O)c2C1)OCc1ccccc1` (stereo not shown) [Example 48, 2-(2-Benzyloxy-propyl)-1,2,3,4-tetrahydro-isoquinolin-8-ol] showed an IC50 of 4.84 µM.

Same assay, conditions: Table 2 (compound numbers of the list in the description); SH-SY-5Y hNav1.8 cells, inhibition of membrane depolarisation, FLIPR membrane potential dye, 250 nM TTX, test concentration range 100 μM-0.05 μM; read-out: IC50

Going from `COc1cccc2c1CN(CC(=O)N1c3ccccc3OCC1c1ccc(NC(C)=O)cc1)CC2` (stereo not shown) [Compound 214, N-(4-{4-[2-(8-Methoxy-3,4-dihydro-1H-isoquinolin-2-yl)-acetyl]-3,4-dihydro-2H-benzo[1,4]oxazin-3-yl}-phenyl)-acetamide] to `COc1cccc2c1CN(CC(=O)N1c3ccccc3OCC1c1ccc(F)cc1)CC2` (stereo not shown) [Compound 215, 1-[3-(4-Fluoro-phenyl)-2,3-dihydro-benzo[1,4]oxazin-4-yl]-2-(8-methoxy-3,4-dihydro-1H-isoquinolin-2-yl)-ethanone], the IC50 falls from 6.36 µM to 1.11 µM (5.7-fold).

Going from `COc1ccc(C2COc3ccccc3N2C(=O)CN2CCc3cccc(OC)c3C2)cc1OC` (stereo not shown) [Compound 216, 1-[3-(3,4-Dimethoxy-phenyl)-2,3-dihydro-benzo[1,4]oxazin-4-yl]-2-(8-methoxy-3,4-dihydro-1H-isoquinolin-2-yl)-ethanone] to `COc1cccc2c1CN(C(C)C(=O)N1c3ccccc3Oc3ccccc31)C2` (stereo not shown) [Compound 217, 2-(4-Methoxy-1,3-dihydro-isoindol-2-yl)-1-phenoxazin-10-yl-propan-1-one], the IC50 falls from 4.31 µM to 1.96 µM (2.2-fold).

Compared with `O=C(CN1c2ccccc2Oc2ccccc21)N1Cc2ccccc2C1` [Compound 218, 1-(1,3-Dihydro-isoindol-2-yl)-2-phenoxazin-10-yl-ethanone], `O=C(CN1Cc2cccc(Cl)c2C1)N1c2ccccc2Oc2ccccc21` [Compound 219, 2-(4-Chloro-1,3-dihydro-isoindol-2-yl)-1-phenoxazin-10-yl-ethanone] is 16-fold lower in IC50: 12.8 µM for the first, 0.8 µM for the second. The second is the more potent here.

Going from `N#Cc1cccc2c1CN(CC(=O)N1c3ccccc3Oc3ccccc31)C2` [Compound 220, 2-(2-Oxo-2-phenoxazin-10-yl-ethyl)-2,3-dihydro-1H-isoindole-4-carbonitrile] to `O=C(CN1Cc2ccccc2C1)NCCC(c1ccccc1)c1ccccc1` [Example 40, 2-(1,3-Dihydro-isoindol-2-yl)-N-(3,3-diphenyl-propyl)-acetamide], the IC50 falls from 0.8 µM to 0.53 µM (1.5-fold).
